How the values were obtained:
[1] = test system: IL-4 stimulated expression of CD23 in human Ramos B cells (JAK-1 and JAK-3); experiment: Assay for Ramos B-Cell Line Stimulated with IL-4 (CD23 upregulation, FACS); format: cell-based; details: Ramos B-cell line stimulated with IL-4; CD23 expression by FACS; read-out: IC50, Example 41
Summary of the method: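 Compound effect on IL-4-driven JAK1/JAK3 signalling is gauged as CD23 surface expression, measured by FACS after 20-24 h of stimulation with IL-4 at 50 units/mL final. A 1 h compound pre-treatment at 37 °C precedes stimulation, and IC50 is derived from the results.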

Primary human T-cells = experiment: Primary Human T-Cell Proliferation Assay Stimulated with IL-2 (CellTiter-Glo); format: cell-based; details: primary human T-cell proliferation stimulated with IL-2; read-out: IC50, Example 42
Summary of the method: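 IC50 derived from CellTiter-Glo ATP signal after 72 hours of IL-2-driven proliferation at 37° C. Cells: primary human T-cells from blood, stimulated beforehand 3-4 days on anti-CD3/anti-CD28 with IL-2, then rested from IL-2 before compound exposure in duplicate; IL-2-free wells served as unstimulated control.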

Compound: Cc1cc(COc2ccc(Nc3nc(Nc4cc(C)c(F)c(S(N)(=O)=O)c4)ncc3F)cc2F)no1 [Compound I-224, N2-(3-Aminosulfonyl-4-fluoro-5-methylphenyl)-5-fluoro-N4-[3-fluoro-4-(5-methylisoxazol-3-yl)methyleneoxyphenyl]-2,4-pyrimidinediamine]
- IC50 [1]: 36.1 nM
- IC50 (Primary human T-cells): 194 nM

Compound: Cc1cc(COc2ccc(Nc3nc(Nc4cc(C)c(F)c(S(N)(=O)=O)c4)ncc3F)cc2)no1 [Compound I-217, N2-(3-Aminosulfonyl-4-fluoro-5-methylphenyl)-5-fluoro-N4-[4-(5-methylisoxazol-3-yl)methyleneoxyphenyl]-2,4-pyrimidinediamine]
- IC50 [1]: 25 nM
- IC50 (Primary human T-cells): 217 nM

Compound: Cc1nc(COc2ccc(Nc3nc(Nc4cccc(S(N)(=O)=O)c4)ncc3F)cc2)no1 [Compound I-276, N2-(3-Aminosulfonyl)phenyl-5-fluoro-N4-[4-(5-methyl-1,2,4-oxadiazol-3-yl)methoxy]phenyl-2,4-pyrimidinediamine]
- IC50 [1]: 135 nM
- IC50 (Primary human T-cells): 106 nM

Compound: CNS(=O)(=O)c1cc(Nc2ncc(F)c(Nc3ccc(OCc4csc(C)n4)cc3)n2)ccc1C [Compound I-282, 5-Fluoro-N2-[3-(N-methylaminosulfony)-4-methylphenyl]-N4-[4-(2-methylthiazol-4-yl)methyleneoxyphenyl]-2,4-pyrimidinediamine]
- IC50 [1]: 339 nM
- IC50 (Primary human T-cells): 697 nM

Compound: Cc1ccc(Nc2ncc(C)c(Nc3ccc(CCC#N)cc3)n2)cc1S(N)(=O)=O [III-11]
- IC50 [1]: 64.2 nM
- IC50 (Primary human T-cells): 46 nM

Compound: Cc1noc(COc2ccc(Nc3nc(Nc4ccc(S(N)(=O)=O)cc4)ncc3F)cc2)n1 [Compound I-231, N2-(4-Aminosulfonylphenyl)-5-fluoro-N4-[4-(3-methyl-1,2,4-oxadiazol-5-yl)methyleneoxyphenyl]-2,4-pyrimidinediamine]
- IC50 [1]: 94.7 nM
- IC50 (Primary human T-cells): 290 nM

Compound: COc1cc(Nc2ncc(F)c(Nc3cc(C)c(OCC#N)c(C)c3)n2)ccc1S(N)(=O)=O [Compound I-32, N2-(4-Aminosulfonyl-3-methoxy)phenyl-N4-(4-cyanomethoxy-3,5-dimethyl)phenyl-5-fluoro-2,4-pyrimidinediamine]
- IC50 [1]: 161 nM
- IC50 (Primary human T-cells): 2780 nM

Compound: NS(=O)(=O)c1cccc(Nc2ncc(F)c(Nc3ccc(Cc4ccncc4)cc3)n2)c1 [III-70, N2-(3-Aminosulfonylphenyl)-5-fluoro-N4-[4-(4-pyridinylmethyl)phenyl]-2,4-pyrimidinediamine]
- IC50 [1]: 64.5 nM
- IC50 (Primary human T-cells): 169 nM

Compound: CCN(CC)CCNS(=O)(=O)c1ccc(Nc2ncc(F)c(Nc3ccc(OCc4csc(C)n4)cc3)n2)cc1 [Compound I-284, N2-[4-(2-N,N-Diethylaminoethyl)aminosulfonylphenyl)-5-fluoro-N4-[4-(2-methylthizol-4-yl)methyleneoxyphenyl]-2,4-pyrimidinediamine]
- IC50 [1]: 136 nM
- IC50 (Primary human T-cells): 421 nM

Compound: Cc1cc(COc2ccc(Nc3nc(Nc4ccc(F)c(S(N)(=O)=O)c4)ncc3F)cc2C)no1 [Compound I-237, N2-(3-Aminosulfonyl-4-fluorophenyl)-5-fluoro-N4-[3methyl-4-(5-methylisoxazol-3-yl)methyleneoxyphenyl]-2,4-pyrimidinediamine]
- IC50 [1]: 147 nM
- IC50 (Primary human T-cells): 2040 nM

Compound: CNS(=O)(=O)c1cc(Nc2ncc(F)c(Nc3ccc(CC#N)cc3)n2)ccc1C [III-1, 5-Fluoro-N2-[3-(N-methylaminosulfony)-4-methylphenyl]-5-fluoro-N4-(4-cyanomethylphenyl)-2,4-pyrimidinediamine]
- IC50 [1]: 151 nM
- IC50 (Primary human T-cells): 545 nM

Compound: Cc1cc(Nc2nc(Nc3ccc(C)c(S(N)(=O)=O)c3)ncc2F)ccc1OCC#N [Compound I-24, N2-(3-Aminosulfonyl-4-methyl)phenyl-N4-(4-cyanomethoxy-3-methyl)phenyl-5-fluoro-2,4-pyrimidinediamine]
- IC50 [1]: 54.2 nM
- IC50 (Primary human T-cells): 296 nM

Compound: CNS(=O)(=O)c1cc(Nc2ncc(F)c(Nc3ccc(OCc4nc(C)no4)cc3)n2)ccc1C [Compound I-260, 5-Fluoro-N2-[3-N-(methyl)aminosulfonyl-4-methylphenyl)-N4-[4-(3-methyl-1,2,4-oxadiazol-5-yl)methyleneoxyphenyl]-2,4-pyrimidinediamine]
- IC50 [1]: 94.8 nM
- IC50 (Primary human T-cells): 223 nM

Compound: Cc1nc(COc2ccc(Nc3nc(Nc4ccc(S(N)(=O)=O)cc4)ncc3F)cc2)no1 [Compound I-275, N2-(4-Aminosulfonyl)phenyl-5-fluoro-N4-[4-(5-methyl-1,2,4-oxadiazol-3-yl)methoxy]phenyl-2,4-pyrimidinediamine]
- IC50 [1]: 223 nM
- IC50 (Primary human T-cells): 577 nM

Compound: Cc1ccc(Nc2ncc(F)c(Nc3ccc(OC4CCN(C)C4)cc3)n2)cc1S(N)(=O)=O (stereo not drawn) [II-10, N2-(3-Aminosulfonyl-4-methylphenyl)-5-fluoro-N4-(N-methylpyrrolidin-3-yloxyphenyl)-2,4-pyrimidinediamine]
- IC50 [1]: 369 nM
- IC50 (Primary human T-cells): 876 nM

Compound: CNS(=O)(=O)c1cc(Nc2ncc(F)c(Nc3ccc(OCc4cc(C)on4)cc3)n2)ccc1C [Compound I-235, 5-Fluoro-N2-[3-(N-methyl)aminosulfonyl-4-methylphenyl]-N4-[4-(5-methylisoxazol-3-yl)methyleneoxyphenyl]-2,4-pyrimidinediamine]
- IC50 [1]: 178 nM
- IC50 (Primary human T-cells): 470 nM

Compound: Cc1cc(Nc2nc(Nc3ccc(S(N)(=O)=O)cc3)ncc2F)cc(C)c1OCC#N [Compound I-25, N2-(4-Aminosulfonyl)phenyl-N4-(4-cyanomethoxy-3,5-dimethyl)phenyl-5-fluoro-2,4-pyrimidinediamine]
- IC50 [1]: 55.8 nM
- IC50 (Primary human T-cells): 1610 nM

Compound: N#CCCc1ccc(Nc2nc(Nc3ccc(F)c(S(N)(=O)=O)c3)ncc2F)cc1 [III-16, N2-(3-Aminosulfonyl-4-fluorophenyl)-N4-[4-(cyanoethylene)phenyl]-5-fluoro-2,4-pyrimidinediamine]
- IC50 [1]: 273 nM
- IC50 (Primary human T-cells): 342 nM

Compound: Cc1ccc(Nc2ncc(F)c(Nc3ccc(CC#N)cc3)n2)cc1S(N)(=O)=O [III-7, N2-(3-Aminosulfonyl-4-methyl)phenyl-N4-(4-cyanomethyl)phenyl-5-fluoro-2,4-pyrimidinediamine]
- IC50 [1]: 85.1 nM
- IC50 (Primary human T-cells): 195 nM

Compound: Cc1cc(Nc2nc(Nc3cccc(S(N)(=O)=O)c3)ncc2F)cc(C)c1OCC#N [Compound I-26, N2-(3-Aminosulfonyl)phenyl-N4-(4-cyanomethoxy-3,5-dimethyl)phenyl-5-fluoro-2,4-pyrimidinediamine]
- IC50 [1]: 37.8 nM
- IC50 (Primary human T-cells): 401 nM

Compound: Cc1nc(COc2ccc(Nc3nc(Nc4ccc(C)c(S(N)(=O)=O)c4)ncc3F)cc2)cs1 [Compound I-280, N2-(3-Aminosulfonyl-4-methylphenyl)-5-fluoro-N4-[4-(2-methylthiazol-4-yl)methyleneoxyphenyl]-2,4-pyrimidinediamine]
- IC50 [1]: 145 nM
- IC50 (Primary human T-cells): 978 nM

Compound: COc1cc(Nc2ncc(F)c(Nc3ccc(OCC#N)cc3)n2)ccc1S(N)(=O)=O [Compound I-28, N2-(4-Aminosulfonyl-3-methoxyphenyl)-N4-(4-cyanomethoxy)phenyl-5-fluoro-2,4-pyrimidinediamine]
- IC50 [1]: 64.5 nM
- IC50 (Primary human T-cells): 560 nM

Compound: Cc1cc(COc2ccc(Nc3nc(Nc4ccc(C)c(S(N)(=O)=O)c4)ncc3F)cc2F)no1 [Compound I-222, N2-(3-Aminosulfonyl-4-methylphenyl)-5-fluoro-N4-[3-fluoro-4-(5-methylisoxazol-3-yl)methyleneoxyphenyl]-2,4-pyrimidinediamine]
- IC50 [1]: 33.1 nM
- IC50 (Primary human T-cells): 582 nM

Compound: CCN(CC)CCNS(=O)(=O)c1cccc(Nc2ncc(F)c(Nc3ccc(OCc4csc(C)n4)cc3)n2)c1 [Compound I-283, N2-[3-(2-N,N-Diethylaminoethyl)aminosulfonylphenyl)-5-fluoro-N4-[4-(2-methylthizol-4-yl)methyleneoxyphenyl]-2,4-pyrimidinediamine]
- IC50 [1]: 518 nM
- IC50 (Primary human T-cells): 362 nM

Compound: Cc1cc(COc2ccc(Nc3nc(Nc4ccc(C)c(S(N)(=O)=O)c4)ncc3F)cc2Cl)no1 [Compound I-221, N2-(3-Aminosulfonyl-4-methylphenyl)-N4-[3-chloro-4-(5-methylisoxazol-3-yl)methyleneoxyphenyl]-5-fluoro-2,4-pyrimidinediamine]
- IC50 [1]: 344 nM
- IC50 (Primary human T-cells): 2680 nM

Compound: Cc1cc(COc2ccc(Nc3nc(Nc4ccc(C)c(S(N)(=O)=O)c4)ncc3F)cc2)no1 [Compound I-219, N2-(3-Aminosulfonyl-4-methylphenyl)-5-fluoro-N4-[4-(5-methylisoxazol-3-yl)methyleneoxyphenyl]-2,4-pyrimidinediamine]
- IC50 [1]: 31.6 nM
- IC50 (Primary human T-cells): 123 nM

Compound: COc1cc(Nc2ncc(F)c(Nc3ccc(CC#N)cc3)n2)ccc1S(N)(=O)=O [III-9, N2-(4-Aminosulfonyl-3-methoxy)phenyl-N4-(4-cyanomethyl)phenyl-5-fluoro-2,4-pyrimidinediamine]
- IC50 [1]: 215 nM
- IC50 (Primary human T-cells): 1800 nM

Compound: Cc1cnc(Nc2ccc(S(N)(=O)=O)cc2)nc1Nc1ccc(CCC#N)cc1 [III-27, N2-(4-Aminosulfonylphenyl)-N4-(4-cyanoethylenephenyl)-5-methyl-2,4-pyrimidinediamine]
- IC50 [1]: 58.3 nM
- IC50 (Primary human T-cells): 119 nM

Compound: Cc1nnc(COc2ccc(Nc3nc(Nc4cccc(S(N)(=O)=O)c4)ncc3F)cc2)o1 [Compound I-277, N2-(3-aminosulfonylphenyl)-5-fluoro-N4-[4-(5-methyl-1,3,4-oxadiazol-2-yl)methyleneoxyphenyl]-2,4-pyrimidinediamine]
- IC50 [1]: 151 nM
- IC50 (Primary human T-cells): 91.5 nM

Compound: CCN(CC)CCNS(=O)(=O)c1ccc(Nc2ncc(F)c(Nc3ccc(OCc4cc(C)on4)cc3)n2)cc1 [Compound I-246, N2-[4-(2-N,N-Diethylaminoethyl)aminosulfonylphenyl)-5-fluoro-N4-[4-(5-methylisoxazol-3-yl)methyleneoxyphenyl]-2,4-pyrimidinediamine]
- IC50 [1]: 106 nM
- IC50 (Primary human T-cells): 182 nM
